# Source: patent US7074780B2, “Substituted phenylcyclohexanecarboxamides and their use” (Bayer Aktiengesellschaft, priority 2000, dated 2006)
# Test system: adenosine-uptake system
# Experiment: Inhibition of the adenosine uptake in rabbit erythrocytes
# Type: cell-based
# Settings: Oryctolagus cuniculus, 0.25 h; rabbit erythrocyte preparation; concentration at which 50% of the adenosine originally employed is still present 15 min after addition of adenosine; 30° C.; read-out: IC50 (inhibition of functional adenosine uptake)
# Description: 2. Inhibition of the Adenosine Uptake in Rabbit Erythrocytes by the Compounds According to the Invention
# The capability of substances to influence the adenosine-uptake system is investigated by determining the inhibitory effect of the substances on functional adenosine uptake.
# For the functional adenosine-uptake test, an erythrocyte preparation from rabbit blood is used. The blood is drawn intravenously using citrate (3 ml Monovette 9NC from Sarstedt) as anticoagulant. The blood is centrifuged at 3000 g for 5 min and the erythrocytes are suspended in 10 mM 3-(N-morpholino)propanesulphonic acid buffer (MOPS)/0.9% NaCL solution pH7.4. The suspension is diluted to one hundredth of the original blood volume. In each case, 990 μl of the suspension are admixed with 10 μl of a suitable concentration of the substance to be investigated, and the mixture is incubated at 30° C. for 5 min. 5 μl of a 4 mM adenosine solution are then added, and the mixture is incubated at 30° C. for another 15 min. The samples are then centrifuged at 3000 g for 5 min and in each case 700 μl of the supernatant are admixed with 28 μl of 70% strength HClO4, allowed to stand in an ice bath for 30 min and centrifuged at 16,000 g for 3 min, and 350 μl of the sample are neutralized using 30 μl of 5N NaOH. 50 μl of the sample are applied to a column (Waters Symmetry C18 5 μm 3.9×150 mm). A Spherisorb ODS II 5 μm 4.6×10 mm column is used as precolumn. The mobile phase used is a gradient of […] KH2PO4/5 mM tributylamine pH7 (mobile phase A) and a mixture of mobile phase A/methanol 1/1 (mobile phase B). The gradient is from 10 to 40% B, at a flow rate of 0.5 ml/min. The adenosine which is present is quantified by its absorption at 260 nm, as are the hypoxanthine and inosine formed. The IC50 is the concentration of active compound at which, 15 min after addition of adenosine, 50% of the adenosine concentration originally employed is still present.
row,SMILES,IC50 [nM]
1,CN(C)C(=O)N(Cc1ccc([C@@H]2CCCC[C@H]2C(=O)N[C@H](C(N)=O)c2ccccc2)cc1)c1ccccc1 [Example 1-3],20
2,CCN(CC)C(=O)N(Cc1ccc([C@@H]2CCCC[C@H]2C(=O)N[C@H](C(N)=O)c2ccccc2)cc1)c1ccccn1 [Example 1-33],40
3,"NC(=O)[C@@H](NC(=O)[C@@H]1CCCC[C@H]1c1ccc(CN(C(=O)N2CCOCC2)c2ccccc2)cc1)c1ccccc1 [Example 1-1, N-{4-[(1R,2R)-2-({[(1S)-2-Amino-2-oxo-1-phenylethyl]amino}carbonyl)cyclohexyl]benzyl}-N-phenyl-4-morpholinecarboxamide]",30
4,CN(C)C(=O)N(Cc1ccc([C@@H]2CCCC[C@H]2C(=O)N[C@H](C(N)=O)c2ccccc2)cc1)C1CC1 [Example 1-14],30
5,"CCN(CCO)C(=O)N(Cc1ccc([C@@H]2CCCC[C@H]2C(=O)N[C@H](C(N)=O)c2ccc(F)cc2)cc1)c1ccc(F)cc1 [Example 2-1, (1R,2R)-N-[(1S)-2-Amino-1-(4-fluorophenyl)-2-oxoethyl]-2-(4-{[{[ethyl(2-hydroxyethyl)amino]carbonyl}(4-fluorophenyl)amino]methyl}phenyl)cyclohexanecarboxamide]",20
6,"CCN(CCO)C(=O)N(Cc1ccc([C@@H]2CCCC[C@H]2C(=O)N[C@H](C(N)=O)c2ccccc2)cc1)c1ccccc1 [Example 2-18, (1R,2R)-N-[(1S)-2-Amino-1-phenyl-2-oxoethyl]-2-(4-{[{[ethyl(2-hydroxyethyl)-amino]carbonyl}(phenyl)amino]methyl}phenyl)cyclohexanecarboxamide]",20
